Laboratory results as given in US20180185440A1, “PHARMACEUTICAL COMPOSITIONS AND METHODS FOR DELIVERY OF BREMELANOTIDE” (NOVEN PHARMACEUTICALS, INC., priority 2016, published 2018).

Experiment: in vivo delivery of bremelanotide by oral capsules (rats)
Parameters: species or system rat
Conditions: oral capsules with patches, FIG. 8
Procedure: The capsules of Examples 4-15 and Control 2, described above, were tested in vivo in a rat model. Capsules were administered by oral gavage administration using a dosing tool, followed by administration of 0.3 mL of water. Blood samples were drawn until 5 hours after administration and assayed for bremelanotide concentration as a function of time. FIGS. 5-8 illustrate the blood levels (pg/ml) of bremelanotide achieved (reported as the average from n=2 or 3 rats per formulation tested). […] The results illustrated in FIGS. 6 and 7 indicate that increasing the relative amount of penetration enhancer results in increased bremelanotide delivery.

SMILES: CCCCCCCCCCCCO[C@@H]1O[C@H](CO)[C@@H](O[C@H]2O[C@H](CO)[C@@H](O)[C@H](O)[C@H]2O)[C@H](O)[C@H]1O [n-DMS, n-dodecyl-β-D-maltoside]
- enhancer effect for bremelanotide through the GI tract: effective enhancers
